Measured values published in patent US20230380419A1, “NANOCOMPOSITE COMPOSITIONS COMPRISING MULTI-VALENT METAL MATERIAL AND IMMOBILIZED QUAT MATERIAL, METHODS OF MAKING THE COMPOSITIONS AND METHODS OF USING THE COMPOSITIONS” (UNIVERSITY OF CENTRAL FLORIDA RESEARCH FOUNDATION, INC., priority 2015, published 2023).

Columns and labels:
[1] = system: E. coli; assay: Minimum Inhibitory Concentration (MIC) assay, broth microdilution and alamar blue; assay type: cell-based; conditions: single-active controls; 24 hours incubation
[2] = system: X. alfalfae; assay: as above; assay type: cell-based; conditions: single-active controls; 24 hours incubation
Method: Although not depicted in the figures, the antimicrobial properties of LSP materials and components were studied using standard microbiological technique to determine the Minimum Inhibitory Concentration (MIC). Samples were tested against Gram-negative Xanthomonas alfalfae subsp. citrumelonis strain F1 (ATCC 49120, a citrus canker surrogate), Gram-negative Pseudomonas syringae pv. syringae (ATCC 19310, causative agent of bacterial speck in Lilac, almond, apricots, peaches and wild beans among others) and Gram positive Clavibacter michiganensis subsp. michiganensis (ATCC 10202, causative agent of bacterial wilt and canker in Tomato sp). X. alfalfae and P. syringae were maintained with nutrient agar and broth while C. michiganensis was grown with brain heart infusion (BHI) media. All bacteria were grown at 26° C. in a shaking incubator (150 rpm).
Minimum Inhibitory Concentration (MIC) Assay
MIC was determined using two different methods: • a. Broth microdilution: Protocols as delineated by the Clinical and Laboratory Standards Institute (CLSI) were followed for conducting MIC studies to be in compliance with American Society of Microbiology guidelines. […] Since broth microdilution is based only on light absorbance, low concentration of bacteria can fall below the detection limit of the traditional optical density measurement. […]

| SMILES | MIC E. coli [1] | MIC X. alfalfae [2] |
| --- | --- | --- |
| O=S(=O)([O-])[O-].[Cu+2] [CuSO4] | 250-500 μg active/mL | 125-250 μg active/mL |
| CCCCCCCCCC[N+](C)(C)CCCCCCCCCC.[Cl-] [Quat, Didecyl Dimethyl Ammonium Chloride] | 2-4 μg active/mL | 2-4 μg active/mL |
